In PubChem BioAssay AID248 (DTP/NCI, 2004):
Values joined by “and” are separate entries in the source; they are usually repeats but may differ in a detail not shown here. Equal entries are not always repeated. Inconclusive results and toxic doses are left out. Cut-off read from the data, not from the text of the source: active = T/C of 150% or more; inactive = T/C below 125%.

System: L1210 leukemia ip in BDF1 mice, survival T/C
Assay: NCI In Vivo Anticancer Drug Screen. Data for tumor model L1210 Leukemia (intraperitoneal) in B6D2F1 (BDF1) mice
Settings: higher = longer survival
Summary of the method: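 In this screen, tumor-bearing mice given compound are compared to those given vehicle, and their survival values are reported as a treated-to-control quotient.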

[1] = endpoint: mean survival time, dose: 100.0 mg/kg/injection, schedule: Q01DX009 (ip), vehicle: saline
[2] = endpoint: mean survival time, dose: 200.0 mg/kg/injection, schedule: Q01DX009 (ip), vehicle: saline
[3] = endpoint: mean survival time, dose: 400.0 mg/kg/injection, schedule: Q01DX009 (ip), vehicle: saline
[4] = endpoint: mean survival time, dose: 50.0 mg/kg/injection, schedule: Q01DX009 (ip), vehicle: saline with Tween-80
[5] = endpoint: mean survival time, dose: 100.0 mg/kg/injection, schedule: Q01DX009 (ip), vehicle: saline with Tween-80
[6] = endpoint: mean survival time, dose: 100.0 mg/kg/injection, schedule: Q04DX003 (ip), vehicle: saline with Tween-80
[7] = endpoint: mean survival time, dose: 200.0 mg/kg/injection, schedule: Q01DX009 (ip), vehicle: saline with Tween-80
[8] = endpoint: mean survival time, dose: 200.0 mg/kg/injection, schedule: Q04DX003 (ip), vehicle: saline with Tween-80
[9] = endpoint: mean survival time, dose: 100.0 mg/kg/injection, schedule: Q04DX003 (ip), vehicle: Klucel (hydroxypropylcellulose) (HPC)
[10] = endpoint: mean survival time, dose: 200.0 mg/kg/injection, schedule: Q04DX003 (ip), vehicle: Klucel (hydroxypropylcellulose) (HPC)
[11] = endpoint: mean survival time, dose: 400.0 mg/kg/injection, schedule: Q04DX003 (ip), vehicle: Klucel (hydroxypropylcellulose) (HPC)
[12] = endpoint: mean survival time, dose: 100.0 mg/kg/injection, schedule: Q04DX002 (ip), vehicle: Klucel (hydroxypropylcellulose) (HPC)
[13] = endpoint: mean survival time, dose: 200.0 mg/kg/injection, schedule: Q04DX002 (ip), vehicle: Klucel (hydroxypropylcellulose) (HPC)
[14] = endpoint: mean survival time, dose: 400.0 mg/kg/injection, schedule: Q04DX002 (ip), vehicle: Klucel (hydroxypropylcellulose) (HPC)
[15] = endpoint: mean survival time, dose: 100.0 mg/kg/injection, schedule: Q01DX001 (ip), vehicle: carboxymethylcellulose (CMC)
[16] = endpoint: mean survival time, dose: 200.0 mg/kg/injection, schedule: Q01DX001 (ip), vehicle: carboxymethylcellulose (CMC)
[17] = endpoint: mean survival time, dose: 400.0 mg/kg/injection, schedule: Q01DX001 (ip), vehicle: carboxymethylcellulose (CMC)
[18] = endpoint: mean survival time, dose: 400.0 mg/kg/injection, schedule: Q04DX003 (ip), vehicle: saline with Tween-80

Measured: T/C

O=c1[nH]cc([N+](=O)[O-])c(=O)[nH]1
inactive: endpoint: mean survival time, dose: 100.0 mg/kg/injection, schedule: Q04DX002 (ip), vehicle: saline 100 % of control | endpoint: mean survival time, dose: 200.0 mg/kg/injection, schedule: Q04DX002 (ip), vehicle: saline 106 % of control | endpoint: mean survival time, dose: 400.0 mg/kg/injection, schedule: Q04DX002 (ip), vehicle: saline 95 % of control

Cc1nc(C)c(C(=O)O)cc1C(=O)O
inactive: [1] 104 % of control | [2] 101 % of control | [3] 100 % of control

Cc1ccccc1Nc1n[nH]c(=S)s1
inactive: [4] 94 % of control | [5] 101 % of control | [6] 97 % of control | [7] 97 % of control | [8] 95 % of control

OCC1(CO)CCCC2(COC3(CCCCC3)OC2)C1
inactive: [9] 98 % of control | [10] 94 % of control | [11] 94 % of control

COc1ccc(/C=C(C(=O)O)/C(=C/c2ccc(OC)c(OC)c2)C(=O)O)cc1OC
inactive: endpoint: mean survival time, dose: 100.0 mg/kg/injection, schedule: Q01DX009 (ip), vehicle: Klucel (hydroxypropylcellulose) (HPC) 96 % of control | [9] 95 % of control | endpoint: mean survival time, dose: 200.0 mg/kg/injection, schedule: Q01DX009 (ip), vehicle: Klucel (hydroxypropylcellulose) (HPC) 105 % of control | [10] 96 % of control | endpoint: mean survival time, dose: 400.0 mg/kg/injection, schedule: Q01DX009 (ip), vehicle: Klucel (hydroxypropylcellulose) (HPC) 91 % of control | [11] 98 % of control

CC1=NC(C)CNC(C)(C)CC(C)=NC(C)CNC(C)(C)C1 (stereo unspecified)
inactive: endpoint: mean survival time, dose: 25.0 mg/kg/injection, schedule: Q04DX002 (ip), vehicle: Klucel (hydroxypropylcellulose) (HPC) 88 % of control | endpoint: mean survival time, dose: 50.0 mg/kg/injection, schedule: Q04DX002 (ip), vehicle: Klucel (hydroxypropylcellulose) (HPC) 94 % of control | [12] 112 % of control

CC1=C/C(=N\NC(N)=O)CCC1
inactive: [12] 97 % of control | [13] 86 % of control | [14] 105 % of control

O=C(O)C1=CC2C3C=C(C(=O)O)C(C3)C2C1 (stereo unspecified)
inactive: endpoint: mean survival time, dose: 100.0 mg/kg/injection, schedule: Q01DX001 (ip), vehicle: Klucel (hydroxypropylcellulose) (HPC) 96 % of control | endpoint: mean survival time, dose: 200.0 mg/kg/injection, schedule: Q01DX001 (ip), vehicle: Klucel (hydroxypropylcellulose) (HPC) 96 % of control | endpoint: mean survival time, dose: 400.0 mg/kg/injection, schedule: Q01DX001 (ip), vehicle: Klucel (hydroxypropylcellulose) (HPC) 97 % of control

COc1ccc(OC)c(CCCC(=O)O)c1
inactive: endpoint: mean survival time, dose: 50.0 mg/kg/injection, schedule: Q01DX001 (ip), vehicle: carboxymethylcellulose (CMC) 108 % of control | [15] 104 % of control | [16] 104 % of control | [17] 102 % of control

CC(NC(=O)c1ccccc1)C(=O)Nc1ccccc1 (stereo unspecified)
inactive: [12] 101 % of control | [13] 114 % of control | [14] 108 % of control

CN1C(=O)CC(C(=O)CBr)(c2ccccc2)C1=O (stereo unspecified)
inactive: endpoint: mean survival time, dose: 25.0 mg/kg/injection, schedule: Q04DX003 (ip), vehicle: saline with Tween-80 109 % of control | endpoint: mean survival time, dose: 50.0 mg/kg/injection, schedule: Q04DX003 (ip), vehicle: saline with Tween-80 101 % of control

Cc1ccc(S(=O)(=O)N/N=C/C=C/C=N/NS(=O)(=O)c2ccc(C)cc2)cc1
inactive: [12] 97 % of control | [13] 103 % of control | [14] 94 % of control

O=C1NC(O)CCN1C1OC(CO)C(O)C1O (stereo unspecified)
inactive: endpoint: mean survival time, dose: 25.0 mg/kg/injection, schedule: Q01DX009 (ip), vehicle: saline 101 % of control | endpoint: mean survival time, dose: 50.0 mg/kg/injection, schedule: Q01DX009 (ip), vehicle: saline 113 % of control | endpoint: mean survival time, dose: 50.0 mg/kg/injection, schedule: Q01DX015 (ip), vehicle: saline 98 % of control | [1] 95 % of control | endpoint: mean survival time, dose: 100.0 mg/kg/injection, schedule: Q01DX015 (ip), vehicle: saline 94 % of control | [2] 110 % of control | [3] 90 % of control | endpoint: mean survival time, dose: 800.0 mg/kg/injection, schedule: Q01DX009 (ip), vehicle: saline 95 % of control | endpoint: median survival time, dose: 500.0 mg/kg/injection, schedule: Q01DX009 (ip), vehicle: saline 102 % of control | endpoint: median survival time, dose: 1000.0 mg/kg/injection, schedule: Q01DX009 (ip), vehicle: saline 94 % of control | endpoint: median survival time, dose: 2000.0 mg/kg/injection, schedule: Q01DX009 (ip), vehicle: saline 93 % of control

c1ccc2c(c1)CCCc1cn[nH]c1-2
inactive: endpoint: mean survival time, dose: 100.0 mg/kg/injection, schedule: Q01DX001 (ip), vehicle: saline 98 % of control | endpoint: mean survival time, dose: 200.0 mg/kg/injection, schedule: Q01DX001 (ip), vehicle: saline 95 % of control

CCCCC(=O)N/N=C/c1ccccc1[N+](=O)[O-]
inactive: [16] 95 % of control | [17] 90 % of control

COc1ccc(/C=N\N/C(N)=N\N=C\c2ccc(OC)cc2)cc1
inactive: endpoint: mean survival time, dose: 15.0 mg/kg/injection, schedule: Q01DX Z (ip), vehicle: carboxymethylcellulose (CMC) 89 % of control | endpoint: mean survival time, dose: 30.0 mg/kg/injection, schedule: Q01DX Z (ip), vehicle: carboxymethylcellulose (CMC) 97 % of control | endpoint: mean survival time, dose: 60.0 mg/kg/injection, schedule: Q01DX Z (ip), vehicle: carboxymethylcellulose (CMC) 93 % of control and 101 % of control | endpoint: mean survival time, dose: 120.0 mg/kg/injection, schedule: Q01DX Z (ip), vehicle: carboxymethylcellulose (CMC) 92 % of control | endpoint: mean survival time, dose: 240.0 mg/kg/injection, schedule: Q01DX Z (ip), vehicle: carboxymethylcellulose (CMC) 100 % of control | endpoint: mean survival time, dose: 240.0 mg/kg/injection, schedule: Q01DX Z (oral), vehicle: carboxymethylcellulose (CMC) 107 % of control | endpoint: mean survival time, dose: 480.0 mg/kg/injection, schedule: Q01DX Z (ip), vehicle: carboxymethylcellulose (CMC) 90 % of control | endpoint: mean survival time, dose: 480.0 mg/kg/injection, schedule: Q01DX Z (oral), vehicle: carboxymethylcellulose (CMC) 105 % of control | endpoint: mean survival time, dose: 960.0 mg/kg/injection, schedule: Q01DX Z (oral), vehicle: carboxymethylcellulose (CMC) 104 % of control | endpoint: mean survival time, dose: 1920.0 mg/kg/injection, schedule: Q01DX Z (oral), vehicle: carboxymethylcellulose (CMC) 102 % of control

CC(C)(CO)N=Cc1ccccc1O.CC(C)(CO)N=Cc1ccccc1O.[Ni]
inactive: endpoint: mean survival time, dose: 75.0 mg/kg/injection, schedule: Q01DX001 (ip), vehicle: other 110 % of control | endpoint: mean survival time, dose: 150.0 mg/kg/injection, schedule: Q01DX001 (ip), vehicle: other 117 % of control

O=C1C=CC(=O)N1c1ccc(Cl)cc1
inactive: endpoint: mean survival time, dose: 10.0 mg/kg/injection, schedule: Q01DX009 (ip), vehicle: Klucel (hydroxypropylcellulose) (HPC) 100 % of control | endpoint: mean survival time, dose: 10.0 mg/kg/injection, schedule: Q04DX003 (ip), vehicle: other 97 % of control | endpoint: mean survival time, dose: 20.0 mg/kg/injection, schedule: Q01DX009 (ip), vehicle: Klucel (hydroxypropylcellulose) (HPC) 88 % of control | endpoint: mean survival time, dose: 20.0 mg/kg/injection, schedule: Q04DX003 (ip), vehicle: other 95 % of control | endpoint: mean survival time, dose: 40.0 mg/kg/injection, schedule: Q04DX003 (ip), vehicle: other 95 % of control

CC(C(O)c1cccs1)C(O)(C(F)(F)F)C(F)(F)F (stereo unspecified)
inactive: [6] 102 % of control | [8] 91 % of control | [18] 88 % of control

O=c1[nH]nc(S(=O)(=O)NC2CCCCC2)c(=O)[nH]1
inactive: [15] 101 % of control | [16] 95 % of control | [17] 110 % of control

COc1cc2ccccc2cc1C(=O)NN
inactive: endpoint: mean survival time, dose: 75.0 mg/kg/injection, schedule: Q04DX003 (ip), vehicle: Klucel (hydroxypropylcellulose) (HPC) 94 % of control | endpoint: mean survival time, dose: 150.0 mg/kg/injection, schedule: Q04DX003 (ip), vehicle: Klucel (hydroxypropylcellulose) (HPC) 102 % of control | endpoint: mean survival time, dose: 300.0 mg/kg/injection, schedule: Q04DX003 (ip), vehicle: Klucel (hydroxypropylcellulose) (HPC) 97 % of control

Cc1cc[n+](Cc2cc3ccccc3[nH]c2=O)cc1
inactive: endpoint: mean survival time, dose: 12.5 mg/kg/injection, schedule: Q01DX001 (ip), vehicle: saline 96 % of control | endpoint: mean survival time, dose: 25.0 mg/kg/injection, schedule: Q01DX001 (ip), vehicle: saline 100 % of control | endpoint: mean survival time, dose: 50.0 mg/kg/injection, schedule: Q01DX001 (ip), vehicle: saline 95 % of control

Cc1cccc(C(C)(C)CO)c1
inactive: [4] 100 % of control | [5] 96 % of control | [7] 96 % of control

O=C(NC(CO)C(O)c1ccc(N=Nc2cccc3ccccc23)cc1)C(Cl)Cl (stereo unspecified)
inactive: [6] 101 % of control | [8] 95 % of control | [18] 93 % of control
